Assay results published in patent publication US20260069653A1, “COMPLEMENT INHIBITOR DOSING REGIMENS” (Apellis Pharmaceuticals, Inc., priority 2021, published 2026).

Key:
[1] = Safety in healthy volunteers, ascending dose study
Method: (§4) Subjects were monitored during a safety period from Day 2 to 8 by physical examination, ECG, hematology, serum chemistry, monitoring for injection site reaction and treatment emergent adverse events (TEAEs). Follow-up safety assessments were performed on Days 15, 22, 29, and 43.

C3a = C3a levels (ELISA) after single IV infusion; type: in vivo, human
Method: C3a Split Product Testing: C3a was measured by ELISA (BD Pharmingen optEIA) using microtiter plates precoated with specific monoclonal antibodies against C3a. The standards, controls and test specimens were diluted and placed in duplicate into the wells and incubated to allow binding of the split products to the antibodies in the well. After washing away unbound proteins, a second anti-split products antibody, conjugated to an enzyme (horseradish peroxidase) was allowed to react with the split products bound to the first antibody on the plate. After an appropriate incubation time and washing, a chromogenic substrate for the enzyme was added to the wells, and the intensity of color that developed was determined spectrophotometrically. Three QC specimens were run on every assay.
C3a ELISA Calculations: The optical densities (OD) for each of the wells containing the standards for the assay were entered as the dependent variables (Y) in a linear regression calculation (Microsoft Excel) in which the concentrations of the standards (provided by the kit manufacturer, BD Pharmingen) were the independent variables (X). The slope (m) and intercept (b) obtained from the regression analysis on a log-log were then used to calculate the concentrations of the unknowns (controls and test specimens). The formula for a straight line was used to calculate the unknown values using a log/log solution: LnY=mLnX+b, solved for X: X=exp (LnY−b)/m*dilution.

[2] = test system: total complement hemolytic activity (CH50); assay: CH50 after single IV infusion; type: in vivo, human
[3] = human, in vivo
Method: as §4

[4] = test system: alternative complement pathway hemolytic activity (AH50); assay: AH50 hemolytic assay on serum after single IV infusion; type: in vivo, human
Method: AH50 Method: AH50 was measured by a hemolytic assay based on lysis of rabbit red blood cells (RA) due to activation of complement on the cell's surface. The AH50 (50% Alternative Complement Hemolytic dose) was determined for each component by adding a limiting amount of the test serum or plasma. For this assay, the buffers are created such as to block activity of the classical pathway, which requires calcium. Serial dilutions of the test specimen were mixed with equal volumes of the RA. This functional assay measured the amount of hemoglobin that was released when the target cells were lysed by the action of complement, and from this, the percentage of the cells that had been lysed was calculated. The major peak of the hemoglobin spectrum was read at 415 nm wavelength. For each assay the run was verified with a five-point standard and five points of characterized QC control.
AH50 Calculations: For verifiable continuity between assay runs, the AH50 assay was performed using a human serum standard with known AH50 activity. […] If the dilution series produced lysis that spanned the 50% point, the three points closest to the 50% point were used to determine the slope and intercept of the line by linear regression. If the percent lysis was very low and none of the dilutions produced 50% lysis, then the two highest points in the series were used, because the slope changes drastically as the sigmoid curve reaches its lower limit. Each specimen from the study was diluted in the same manner and individual 50% lysis points determined by linear regression.

acute hemolysis [5] = assay: LDH during intensive dosing for acute hemolysis in PNH patients; type: in vivo, human
Source text: (§1) Eligibility criteria for the intensive dosing regimen included lactate dehydrogenase (LDH) >2× the upper limit of normal (ULN) and one new or worsening sign or symptom of hemolysis (e.g., decreased hemoglobin (Hb), hemoglobinuria, or fatigue).
(§2) Patients who experienced additional acute hemolysis events after receiving intensive PEG treatment received additional doses of intensive SC PEG or intensive IV PEG. […] Analyzed data relates to the first event if a patient experienced multiple acute hemolysis events.
(§3) Levels of Hb (on day 1) and LDH (on day 1, day 2, days 7-12, days 14-19) during the event of acute hemolysis were determined. […] For each patient, at least 6 days were between the measurements on day 7-12 and day 14-19. Safety was evaluated by the incidence and severity of adverse events.

[6] = Safety of intensive dosing in PNH patients; type: in vivo, human; details: intensive PEG treatment
Source text: as §1, §2, §3

acute hemolysis [7] = assay: Hemoglobin during intensive dosing for acute hemolysis in PNH patients; type: in vivo, human; details: patients with and without RBC transfusion (FIG. 6)
Source text: as §1, §2, §3

[8] = Serum concentration of PEG after single IV infusion, ascending dose study; type: in vivo, human; details: for peak concentration (Cmax), mean serum concentration: healthy subjects

Substance: Poly(oxy-1,2-ethanediyl), α-hydro-ω-hydroxy-, 15,15′-diester with N-acetyl-L-isoleucyl-L-cysteinyl-L-valyl-1-methyl-L-tryptophyl-L-glutaminyl-L-α-aspartyl-L-tryptophylglycyl-L-alanyl-L-histidyl-L-arginyl-L-cysteinyl-L-threonyl-2-[2-(2-aminoethoxy)ethoxy]acetyl-N^6-carboxy-L-lysinamide cyclic (2-->12)-(disulfide) [PEG]
- subjects with moderate TEAE (infusion-related reaction, dizziness, clamminess, nausea) that led to study discontinuation ([1]; 2300 mg cohort, one subject, percent of the twenty subjects): 5.0%
- incidence of diarrhea (TEAE) ([1]; PEG groups, n=2): 12.5%
- incidence of headache (TEAE) ([1]; PEG groups, n=6): 37.5%
- serious adverse events, deaths, severe TEAEs ([1]; healthy subjects, single IV 200-2300 mg): No serious adverse events, deaths, or severe TEAEs occurred
- time within which initial rapid decrease in mean C3a levels occurred (C3a; all PEG groups): ≤ 1 h
- time of trough mean C3a levels after dosing (C3a; all dose groups): ≤ 24 h
- maximum mean C3a decrease from baseline (C3a; single IV 1500 mg, at 4 hours post-dosing start): 57%
- Mean CH50 upon dosing ([2]; all cohorts): decreased immediately
- time for which decrease in mean CH50 was retained ([2]; single IV 1500 mg): at least 48 hours
- time by which mean CH50 returned to baseline ([2]; single IV 2300 mg, post-dosing start): ≤ 24 h
- incidence of upper respiratory infections (TEAE) [3]: 12.5%
- AH50 level from 1 hr post-dosing start ([4]; 1500 and 2300 mg single IV doses): undetectable levels
- time within which decreases in mean AH50 values were detected ([4]; all PEG cohorts (200-2300 mg single IV)): ≤ 1 h
- mean maximum decrease of AH50 compared to placebo ([4]; all PEG groups, p<0.0001): statistically significant larger
- time for which decrease in mean AH50 was maintained ([4]; single IV 200 mg): at least 12 hrs
- time for which decrease in mean AH50 was maintained ([4]; single IV 600 mg): ≥ 72 h
- time for which decrease in mean AH50 was maintained ([4]; single IV 1500 mg): ≥ 144 h
- patients with LDH levels decreased at day 7-12 (acute hemolysis [5]; all 13 patients, intensive SC or IV PEG): 13 patients
- patients with LDH levels decreased between day 1 and day 2 (acute hemolysis [5]; all evaluable patients, intensive SC or IV PEG 1080 mg): 8 of 12
- patients with LDH levels further decreased from day 7-12 to day 14-19 (acute hemolysis [5]; all patients, intensive SC or IV PEG): 11 of 13
- patients with LDH levels further decreased from day 7-12 to day 14-19 (acute hemolysis [5]; intensive IV PEG): 3 of 4
- patients with LDH levels decreased between day 1 and day 2 (acute hemolysis [5]; intensive IV PEG (single 1080 mg dose)): 4 of 4
- patients with LDH levels further decreased from day 7-12 to day 14-19 (acute hemolysis [5]; intensive SC PEG): 7 of 9
- patients with LDH levels decreased between day 1 and day 2 (acute hemolysis [5]; intensive SC PEG (1080 mg every 24 hours for 3 doses)): 4 of 8
- patients with serious adverse events ([6]; 4 of 13 patients): 31%
- patients with treatment-emergent adverse events ([6]; Nine of 13 patients): 69%
- adverse events leading to treatment discontinuation [6]: None of the adverse events led to treatment discontinuation
- adverse events of meningitis or thrombosis [6]: No adverse events of meningitis or thrombosis occurred
- share of treatment-emergent adverse events that were mild [6]: 76%
- mean Hb from day 1 of intensive therapy (acute hemolysis [7]): increased
- terminal elimination half-life ([8]; Cohort 4 (2300 mg single IV)): 11.9 days
- peak concentration (Cmax), mean serum concentration ([8]; single IV 200 mg, at 1 hr post-dose (infusion start)): 61 µg/mL
- peak concentration (Cmax), mean serum concentration ([8]; single IV 600 mg, at 1 hr post-dose (infusion start)): 193 µg/mL
- peak concentration (Cmax), mean serum concentration ([8]; single IV 1500 mg, at 4 hrs): 542 µg/mL
- peak concentration (Cmax), mean serum concentration ([8]; single IV 2300 mg, at 1 hr post-dose (infusion start)): 708 µg/mL
